Experimental data: patent publication US20130253022A1 (FOX CHASE CHEMICAL DIVERSITY CENTER, INC., priority 2010, published 2013)

What was measured:
hippocampal neurons = assay: Prevention of reactive oxygen species accumulation from hydrogen peroxide (CDFFDA dye); type: cell-based; settings: Rattus norvegicus, Hippocampal neuron; hydrogen peroxide for three hours, day 18 hippocampal cultures; read-out: Potency of Reduction in Oxidized CDFFDA (ROS) EC50
Description: Cell cultures: all compounds were screened with dissociated hippocampal cultures derived from embryonic day 18 rats as the primary test system. With this preparation, primary neurons were used to test for prevention of reactive oxygen species accumulation in response to hydrogen peroxide. In brief, hippocampal tissue was obtained commercially through Brain Bits (Springfield, Ill.) and cultures prepared as previously described (Brewer, G. J. Serum-free B27/neurobasal medium supports differentiated growth of neurons from the striatum, substantia nigra, septum, cerebral cortex, cerebellum and dentate gyms. J. Neurosci. Res. 1995, 42, 674-683). […]
Hydrogen peroxide and glutamate generate reactive oxygen species (ROS) such as superoxide anions, hydrogen peroxide and hydroxyl radicals which can reactively damage cellular components including DNA, lipids and proteins (Anderson et al. (2001). Green tea catechins partially protect DNA from OH radical-induced strand breaks and base damage through fast chemical repair of DNA radicals. Carcinogenesis 2001, 22:1189-1193). […] The cultures were then treated with 30 nM hydrogen peroxide for three hours and the fluorescence measured at Ex/Em 485/508. Background fluorescence was subtracted from values obtained from wells without cells.

Hippocampal Cultures = assay: Neuroprotection from hydrogen peroxide (oxidative stress), CFDA assay; type: cell-based; settings: Rattus norvegicus; 10 μM hydrogen peroxide, hippocampal cultures, 4 hour test period; read-out: NP from Hydrogen Peroxide CFDA EC50
Description: Cell cultures: All compounds are screened with dissociated hippocampal cultures derived from embryonic day 18 rats as the primary test system. With this preparation, primary neurons are used to test for toxicity as well as neuroprotection in a highly relevant experimental system to epilepsy. In brief, hippocampal tissue are obtained commercially through Brain Bits (Springfield, Ill.) and cultures prepared as previously described by Brewer (Brewer, G. J. Serum-free B27/neurobasal medium supports differentiated growth of neurons from the striatum, substantia nigra, septum, cerebral cortex, cerebellum and dentate gyms, J. Neurosci. Res. 1995, 42, 674-683). The hippocampal neurons are platted at low density (10,000 cell/well) in a 96-well format and maintained in serum-free medium consisting of Neurobasal Medium supplemented with B27 and GlutaMAX (Gibco). Pre-coated poly-L-lysine coated plates are used because of the preferential adherence and survival of hippocampal neurons on this matrix support.
Potent neuroprotection is the distinguishing characteristic that separates this program's anticonvulsants from all other commercial drugs for epilepsy. The experimental details and the rationale for the implemented assays are essential in differentiating these compounds from that of others. The central objective of all neuroprotective assays was their relevancy to excitotoxicity and oxidative stress related to epilepsy. Both the amount of glutamate and hydrogen peroxide used in the assays, as well as the time of treatment and duration of the experiment, were designed to be relevant to epilepsy. Further, all time parameters employed in these studies were empirically determined to be within the limits of reversible toxic events, yet using amounts of glutamate and hydrogen peroxide that were relevant to the disease. In regard to glutamate toxicity, a critical feature was the duration of treatment of the hippocampal neurons. The rational for using a short 5 min treatment with glutamate was based on the observation of Randall and Thayer (Randall, R. D.; Thayer, S. A. Glutamate-induced calcium transient triggers calcium overload and neurotoxicity in rat hippocampal neurons, J. Neurosci. 1992, 12, 1882-1895). […] The rationale is that this intense burst of glutamate and resulting calcium overload is relevant to seizures and therefore was important data to capture in the screening assay. The amount of glutamate (30 μM) employed in our screening was based on the basal levels of glutamate observed in microdialysis measurements of hippocampus from epileptogenic patients (Cavus et al. Decreased hippocampal volume on MRI is associated with increased extracellular glutamate in epilepsy patients, Epilepsia, 2008, 49, 1358-1366). In regard to hydrogen peroxide, the amount employed (10 μM) was detected in the hippocampus of rats after kainate-induced status epilepticus (Jarrett et. al., Mitochondrial DNA damage and impaired base excision repair during epileptogenesis, Neurobiol. Dis. 2008, 30, 130-138). To produce neural damage and death with these amounts of glutamate and hydrogen peroxide, the cultures were changed to a medium with significant depletion of antioxidant components in the defined medium supplement B-27 just prior to treatment with the compounds. This was performed to obtain a significant and reproducible toxic signal in the hippocampal neurons and because loss of antioxidant control may be a component of epileptogenesis (Waldbaum and Patel, Mitochondria, oxidative stress and temporal lobe epilepsy, Epilepsy Res. 2010 88, 23-45; Wu et al., Mitochondrial DNA mutation-elicited oxidative stress, oxidative damage, and altered gene expression in cultured cells of patients with MERRF syndrome, Mol. Neurobiol. 2010, 41, 256-266). Neuroprotection studies with hydrogen peroxide were conducted with cultures that were between day 12 and day 18. Studies of neuroprotection glutamate were conducted between day 19 and day 22. […]

Row | Structure (SMILES) | EC50 (hippocampal neurons) [nM] | EC50 (Hippocampal Cultures) [nM]
1 | NS(=O)(=O)NCC(F)(F)c1ccccc1Cl [Example 2, 2,2-Difluoro-2-(2-chlorophenyl)-ethyl-1-sulfamide] | 0.01 | 0.1
2 | NS(=O)(=O)NCC(F)(F)c1ccccc1F [Example 1, 2,2-Difluoro-2-(2-fluorophenyl)-ethyl-1-sulfamide] | 0.03 | 1
